Measured values from ChEMBL document CHEMBL1201862, “PubChem BioAssay data set” (2004).
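Compound exposure: 48 hours, 5 concentrations, 96-well plates. At the GI50, growth is halved.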 Activity calls are given as the source filed them. Rule as the data show it: active = GI50 up to about 1.1 µM and inactive = higher.

Assays:
Assay in all cases: growth of human tumour cells (NCI), 48 h
[1] = test system: IGROV-1
[2] = test system: NCI-H226
[3] = test system: SF-539
[4] = test system: CAKI-1
[5] = test system: A498
[6] = test system: KM-20L2
[7] = test system: RPMI-8226
[8] = test system: SW-620
[9] = test system: MOLT-4
[10] = test system: NCI-H522
[11] = test system: SNB-75
[12] = test system: SNB-19
[13] = test system: HCC 2998
[14] = test system: LOX IMVI
[15] = test system: HOP-62
[16] = test system: A549
[17] = test system: EKVX
[18] = test system: OVCAR-4

SMILES	GI50 [1]	GI50 [2]	GI50 [3]	GI50 [4]	GI50 [5]	GI50 [6]	GI50 [7]	GI50 [8]	GI50 [9]	GI50 [10]	GI50 [11]	GI50 [12]	GI50 [13]	GI50 [14]	GI50 [15]	GI50 [16]	GI50 [17]	GI50 [18]
COc1ccc([Se]c2ccc(OC)cc2)cc1	> 100 µM (inactive)	17.4 µM (inactive)	73.3 µM (inactive)	23.3 µM (inactive)	99.1 µM (inactive)	65.2 µM (inactive)	24.4 µM (inactive)	> 100 µM (inactive)	41.5 µM (inactive)	27.2 µM (inactive)	19.3 µM (inactive)	> 100 µM (inactive)	> 100 µM (inactive)	> 100 µM (inactive)	> 100 µM (inactive)	> 100 µM (inactive)		
c1ccc2c(c1)SP1Sc3ccccc3P21 (configuration not stated)	> 100 µM (inactive)	> 45.7 µM (inactive)	> 100 µM (inactive)		> 100 µM (inactive)	> 78 µM (inactive)	59.6 µM (inactive)	> 100 µM (inactive)	> 100 µM (inactive)	39.6 µM (inactive)	61.9 µM (inactive)	> 28.2 µM (inactive)	90.6 µM (inactive)	> 83.6 µM (inactive)	> 100 µM (inactive)	> 100 µM (inactive)	> 100 µM (inactive)	72.3 µM (inactive)
COc1ccc2cc(C(=O)c3ccccc3C(=O)O)ccc2c1	> 100 µM (inactive)	> 100 µM (inactive)		> 100 µM (inactive)	> 100 µM (inactive)	> 100 µM (inactive)		> 100 µM (inactive)	> 100 µM (inactive)	> 100 µM (inactive)	> 100 µM (inactive)	> 100 µM (inactive)	> 100 µM (inactive)	> 100 µM (inactive)	> 100 µM (inactive)	> 100 µM (inactive)	> 100 µM (inactive)	> 100 µM (inactive)
Cn1ccnc1CCc1ccc(Cl)c(Cl)c1	> 100 µM (inactive)	> 100 µM (inactive)	> 100 µM (inactive)	> 100 µM (inactive)	73.5 µM (inactive)	> 100 µM (inactive)	> 100 µM (inactive)	> 100 µM (inactive)	> 100 µM (inactive)	> 100 µM (inactive)	37.3 µM (inactive)			> 100 µM (inactive)	> 100 µM (inactive)	> 100 µM (inactive)		> 100 µM (inactive)
CCN(CC)CCSc1c2ccccc2nc2cc(NCC(=O)Nc3ccccc3-c3ccccc3NC(=O)CNc3ccc4c(SCCN(CC)CC)c5ccccc5nc4c3)ccc12	> 100 µM (inactive)	> 100 µM (inactive)	> 100 µM (inactive)	> 100 µM (inactive)	> 100 µM (inactive)	> 100 µM (inactive)	53.7 µM (inactive)	> 100 µM (inactive)	23.2 µM (inactive)	74.6 µM (inactive)	> 77.4 µM (inactive)	> 100 µM (inactive)	> 100 µM (inactive)	> 76.6 µM (inactive)	> 100 µM (inactive)	> 100 µM (inactive)	> 100 µM (inactive)	> 88.9 µM (inactive)
N#CCCN(CCC#N)c1ccc(C(=O)NN)cc1	> 100 µM (inactive)	> 100 µM (inactive)	> 100 µM (inactive)	> 100 µM (inactive)	> 100 µM (inactive)	> 100 µM (inactive)	> 100 µM (inactive)	> 100 µM (inactive)	> 100 µM (inactive)	> 100 µM (inactive)	> 100 µM (inactive)	> 100 µM (inactive)	> 100 µM (inactive)	> 100 µM (inactive)	> 100 µM (inactive)	> 100 µM (inactive)	> 100 µM (inactive)	> 100 µM (inactive)
COC(=O)C(C(=O)C(=O)Nc1c(C)cccc1C)c1cnc2ccccc2n1 (configuration not stated)	> 100 µM (inactive)	> 100 µM (inactive)		> 100 µM (inactive)	> 100 µM (inactive)	> 100 µM (inactive)	> 100 µM (inactive)	> 100 µM (inactive)	> 100 µM (inactive)	> 100 µM (inactive)	> 100 µM (inactive)	> 100 µM (inactive)	> 100 µM (inactive)	> 100 µM (inactive)		> 100 µM (inactive)	> 100 µM (inactive)	> 100 µM (inactive)
CCCCCCCCCCCC(=O)OC(COC(N)=O)COc1ccc(Cl)cc1 (configuration not stated)	27.5 µM (inactive)	17.3 µM (inactive)	18.8 µM (inactive)	21.3 µM (inactive)	65.9 µM (inactive)	37.8 µM (inactive)	22.1 µM (inactive)	24.3 µM (inactive)	23.7 µM (inactive)	17.1 µM (inactive)	33.4 µM (inactive)	33.3 µM (inactive)	30.5 µM (inactive)	23.2 µM (inactive)	25 µM (inactive)	19.1 µM (inactive)	30.1 µM (inactive)	19.1 µM (inactive)
O=C(CCC1C(=O)NC(=S)NC1=O)c1ccc2ccccc2c1	> 100 µM (inactive)	> 100 µM (inactive)	> 100 µM (inactive)	> 100 µM (inactive)	> 100 µM (inactive)	> 100 µM (inactive)		> 100 µM (inactive)	> 100 µM (inactive)	14.8 µM (inactive)	> 100 µM (inactive)	> 100 µM (inactive)	> 100 µM (inactive)	> 100 µM (inactive)	> 100 µM (inactive)	> 100 µM (inactive)	> 100 µM (inactive)	> 100 µM (inactive)
CC(=O)NC1C(=O)CC(c2ccccc2)N(C)C1c1ccccc1 (configuration not stated)	> 100 µM (inactive)	> 100 µM (inactive)	> 100 µM (inactive)	> 100 µM (inactive)	> 100 µM (inactive)	> 100 µM (inactive)		> 100 µM (inactive)	> 100 µM (inactive)	> 100 µM (inactive)	> 100 µM (inactive)	> 100 µM (inactive)	> 100 µM (inactive)	6.17 µM (inactive)	> 100 µM (inactive)	> 100 µM (inactive)	> 100 µM (inactive)	> 100 µM (inactive)
CC12CCC3(C1)[C@H](CC2=O)C[C@@H](OC(=O)c1ccccc1)C1C(C)(CO)CCC[C@@]13C (some centres not stated)	6.49 µM (inactive)	1.6 µM (inactive)	6.08 µM (inactive)	0.861 µM (active)	3.12 µM (inactive)	1.82 µM (inactive)	0.746 µM (active)	2.37 µM (inactive)	1.54 µM (inactive)	2.02 µM (inactive)	9.14 µM (inactive)	5.86 µM (inactive)	1.97 µM (inactive)	2.17 µM (inactive)	5.41 µM (inactive)	3.46 µM (inactive)	3.96 µM (inactive)	1.44 µM (inactive)
COc1ccc(NC(=O)C(=O)Cc2nc3ccc([N+](=O)[O-])cc3nc2O)c(OC)c1	> 100 µM (inactive)	> 100 µM (inactive)	> 100 µM (inactive)	> 100 µM (inactive)	44.6 µM (inactive)	> 100 µM (inactive)		> 100 µM (inactive)	> 100 µM (inactive)	83.4 µM (inactive)	> 100 µM (inactive)	> 100 µM (inactive)	> 100 µM (inactive)	87.9 µM (inactive)		> 100 µM (inactive)	> 100 µM (inactive)	> 100 µM (inactive)
